Assay results reported in ChEMBL document CHEMBL1201862, “PubChem BioAssay data set” (2004).
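96-well plates; 48 h exposure; 5 concentrations. Endpoints by linear interpolation between flanking doses. Not reached: highest tested concentration assigned. GI50 is the concentration that inhibits growth by half.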 Active and inactive are the calls of the source. Cut-off read from the data, not from the text of the source: active = GI50 up to about 1.1 µM and inactive = higher.

Key:
Assay in all cases: NCI anticancer screen, dose series, 48 h
SN12C = system: SN12C
HOP-92 = system: HOP-92
TK-10 = system: TK-10
UO-31 = system: UO-31
OVCAR-5 = system: OVCAR-5
NCI-H460 = system: NCI-H460
HCT-15 = system: HCT-15
SF-295 = system: SF-295
LOX IMVI = system: LOX IMVI
T47D = system: T47D
SF-268 = system: SF-268
OVCAR-8 = system: OVCAR-8
NCI-H23 = system: NCI-H23
OVCAR-3 = system: OVCAR-3
SW-620 = system: SW-620
HCC 2998 = system: HCC 2998
MDA-N = system: MDA-N
A498 = system: A498
MDA-MB-231 = system: MDA-MB-231
CAKI-1 = system: CAKI-1
OVCAR-4 = system: OVCAR-4
HT-29 = system: HT-29
HOP-62 = system: HOP-62
KM12 = system: KM12
MOLT-4 = system: MOLT-4
BT-549 = system: BT-549
NCI-H226 = system: NCI-H226
UACC-257 = system: UACC-257
786-0 = system: 786-0
RPMI-8226 = system: RPMI-8226
MDA-MB-435 = system: MDA-MB-435
NCI-H522 = system: NCI-H522
NCI/ADR-RES = system: NCI/ADR-RES
SK-MEL-5 = system: SK-MEL-5
U-251 = system: U-251
SNB-19 = system: SNB-19
MCF7 = system: MCF7
Malme-3M = system: Malme-3M
SK-OV-3 = system: SK-OV-3
DU-145 = system: DU-145
UACC-62 = system: UACC-62
ACHN = system: ACHN
COLO 205 = system: COLO 205
M14 = system: M14
EKVX = system: EKVX
SF-539 = system: SF-539
SR = system: SR
HCT-116 = system: HCT-116
PC-3 = system: PC-3
SK-MEL-28 = system: SK-MEL-28
Hs-578T = system: Hs-578T
A549 = system: A549
SNB-75 = system: SNB-75
IGROV-1 = system: IGROV-1
SK-MEL-2 = system: SK-MEL-2
K562 = system: K562
RXF 393 = system: RXF 393
CCRF-CEM = system: CCRF-CEM

Measured: GI50

O=Cc1cccc2c1Oc1c(cccc1C(=O)O)S2
inactive: SN12C 85.3 µM | HOP-92 70.8 µM | TK-10 > 100 µM | UO-31 58.3 µM | OVCAR-5 > 100 µM | NCI-H460 50.4 µM | SF-295 52.7 µM | LOX IMVI 45.7 µM | T47D 83 µM | SF-268 48.3 µM | OVCAR-8 53.7 µM | NCI-H23 > 100 µM | OVCAR-3 33.3 µM | SW-620 > 100 µM | HCC 2998 57.4 µM | MDA-N 59.2 µM | A498 > 100 µM | MDA-MB-231 > 100 µM | CAKI-1 81.1 µM | OVCAR-4 98.4 µM | HT-29 > 100 µM | HOP-62 49.9 µM | KM12 13.7 µM | MOLT-4 17.3 µM | BT-549 > 100 µM | NCI-H226 > 100 µM | UACC-257 > 100 µM | 786-0 76.2 µM | RPMI-8226 25.7 µM | MDA-MB-435 > 100 µM | NCI-H522 81.5 µM | NCI/ADR-RES 36 µM | SK-MEL-5 67.1 µM | U-251 62.7 µM | SNB-19 87.7 µM | MCF7 89.3 µM | Malme-3M 81.3 µM | SK-OV-3 61.8 µM | DU-145 56.1 µM | UACC-62 > 100 µM | ACHN 34.3 µM | COLO 205 23.2 µM | M14 > 100 µM | EKVX 70.1 µM | SF-539 38.9 µM | HCT-116 28.2 µM | PC-3 > 100 µM | SK-MEL-28 > 100 µM | Hs-578T 65.9 µM | A549 23.6 µM | SNB-75 78.7 µM | IGROV-1 > 100 µM | SK-MEL-2 > 100 µM
active: SR < 0.01 µM
35.4 µM: HCT-15

CN(C)CCNC(=O)c1cccc2c(NCCN(C)C)c3ccccc3nc12
active: MOLT-4 1 µM | SR 0.982 µM
3.63 µM: HCT-15
inactive: SN12C 1.73 µM | HOP-92 2.16 µM | TK-10 3.24 µM | UO-31 2.92 µM | OVCAR-5 2.89 µM | NCI-H460 1.37 µM | SF-295 4.93 µM | LOX IMVI 1.55 µM | T47D 14.6 µM | SF-268 3.07 µM | OVCAR-8 3.19 µM | NCI-H23 2.33 µM | OVCAR-3 2.39 µM | SW-620 2.33 µM | HCC 2998 1.91 µM | MDA-N 3.15 µM | A498 1.94 µM | MDA-MB-231 2 µM | CAKI-1 2.69 µM | OVCAR-4 2.49 µM | HT-29 1.61 µM | HOP-62 3.19 µM | KM12 2.79 µM | BT-549 7.59 µM | NCI-H226 1.37 µM | K562 1.73 µM | UACC-257 5.14 µM | 786-0 1.7 µM | RPMI-8226 2.41 µM | MDA-MB-435 2.94 µM | NCI-H522 1.37 µM | NCI/ADR-RES 7.78 µM | SK-MEL-5 3.48 µM | U-251 2.69 µM | SNB-19 3.24 µM | MCF7 2.36 µM | Malme-3M 3.85 µM | SK-OV-3 7.4 µM | DU-145 3.82 µM | UACC-62 4.55 µM | ACHN 1.76 µM | RXF 393 3.6 µM | COLO 205 1.92 µM | M14 7.1 µM | EKVX 2.99 µM | SF-539 3.05 µM | HCT-116 1.48 µM | PC-3 2.42 µM | SK-MEL-28 13.7 µM | Hs-578T 2.66 µM | A549 1.91 µM | SNB-75 5.06 µM | IGROV-1 2.68 µM | CCRF-CEM 2 µM | SK-MEL-2 5.28 µM

CSc1c(C)[n+]([O-])c2cc(Cl)c(Cl)cc2[n+]1[O-]
17 µM: HCT-15
inactive: SN12C 16.4 µM | HOP-92 16.2 µM | TK-10 20.6 µM | UO-31 16.3 µM | OVCAR-5 17.4 µM | NCI-H460 37.9 µM | SF-295 > 56.8 µM | LOX IMVI 17.9 µM | T47D 20.8 µM | SF-268 18.5 µM | OVCAR-8 16.6 µM | NCI-H23 16.2 µM | OVCAR-3 11.5 µM | SW-620 16.8 µM | HCC 2998 18.8 µM | MDA-N 16 µM | A498 21.6 µM | MDA-MB-231 20.2 µM | CAKI-1 18.2 µM | OVCAR-4 16.4 µM | HT-29 18.1 µM | HOP-62 33.3 µM | KM12 31.4 µM | MOLT-4 2.38 µM | BT-549 18.3 µM | NCI-H226 13.1 µM | K562 3.32 µM | UACC-257 17.9 µM | 786-0 17.3 µM | RPMI-8226 9.73 µM | MDA-MB-435 18.5 µM | NCI-H522 12.2 µM | NCI/ADR-RES 17.8 µM | SK-MEL-5 17.7 µM | U-251 21.9 µM | SNB-19 > 86.9 µM | MCF7 19 µM | Malme-3M 16.9 µM | SK-OV-3 > 100 µM | DU-145 16.9 µM | UACC-62 14.9 µM | ACHN 16.8 µM | RXF 393 21.5 µM | COLO 205 15.5 µM | M14 19.8 µM | EKVX 16.3 µM | SF-539 44.8 µM | SR 3.13 µM | HCT-116 16.4 µM | PC-3 18.6 µM | SK-MEL-28 19 µM | Hs-578T 24.2 µM | A549 > 100 µM | SNB-75 > 47.1 µM | IGROV-1 14 µM | CCRF-CEM 2.32 µM | SK-MEL-2 19.9 µM
